The source of these data is PMC7470113, “Design, synthesis and biological evaluation of edaravone derivatives bearing the N-benzyl pyridinium moiety as multifunctional anti-Alzheimer’s agents” (Journal of Enzyme Inhibition and Medicinal Chemistry, 2020).

Read-outs that look alike come from different tables or passages of the source.

The nature of assay [1]: DPPH+ free radical scavenging antioxidant assay. The method, then:
Antioxidant activity was studied with the DPPH^+ free radical scavenging assay[46]^,[47]. DPPH^+ and trolox were purchased from Sigma-Aldrich®. The following method was employed, as previously described, to determine the antioxidant activity of the test compounds. Each well of a 96 well plate, contained the following: 180 µL of 0.12 mM DPPH^+ dissolved in methanol and 20 µL of either test compound, control (trolox) or blank (DMSO). The test compounds and control were dissolved in DMSO and added to the well to yield various concentrations (1000 µM, 100 µM, 10 µM, 1 µM and 0.1 µM). […] The well plate was incubated at 25 °C for 30 min within a dark space. […] The quantity of DMSO per well accumulated to below 0.01%[45]. […] The percentage activity was calculated using the following equation: [(absorbance of blank − absorbance of test compounds)/absorbance of blank × 100)]. All data analysis was conducted on GraphPad Prism version 8.2.1 for Mac OS, GraphPad Software (San Diego, California, USA).
The 2,2-diphenyl-1-picrylhydrazyl (DPPH^+) assay was employed to determine the antioxidant ability of the synthesised compounds.
(In general: Loss of DPPH colour is used to gauge radical scavenging.)

The target in assay [2] is T1, eeAChE (Electrophorus electricus, UniProt O42275).
T1 construct: purchased Sigma-Aldrich
The assay can be described thus: Cholinesterase inhibition assay (modified Ellman's method), eeAChE. Format: biochemical. The following applies: for IC50: eeAChE, Ellman, 25 °C, triplicate, read-out: AChE IC50; for SI AChE (AChE selectivity index = IC50(eqBuChE)/IC50(eeAChE)): ratio BuChE/AChE. The method, then: (§1) . […] The test compounds and control were dissolved in DMSO and added to the well to yield various concentrations (1000 µM, 100 µM, 10 µM, 1 µM, 0.1 µM and 0.01 µM). The quantity of DMSO per well accumulated to below 0.01%[45]. Each concentration of test compound and control was conducted in triplicate to ensure consistent results. The well-plates were then incubated at 25 °C for 10 min. Thereafter, 30 µL of either the ATCI or BTCI substrate was added to each well. The plate was then placed inside a Rayto 6500 spectrometer and the absorbance was read at 405 nm every 45 s for 5 min. The percentage activity was calculated using the following equation: [(absorbance of blank − absorbance of test compounds)/absorbance of blank × 100)]. All data analysis was conducted on GraphPad Prism version 8.2.1 for Mac OS, GraphPad Software (San Diego, CA, USA)
(§2) The inhibitory activities of the synthesised compounds were evaluated using eeAChE (electric eel) and eqBuChE (equine serum) according to a modified method of Ellman[44]. […].
(Ellman's reagent forms a yellow product with free thiols.)

The target in assay [3] is T2, eqBuChE (Equus caballus, UniProt P81908).
T2 construct: purchased Sigma-Aldrich; host or cells: equine serum
The assay can be described thus: Cholinesterase inhibition assay (modified Ellman's method), eqBuChE. Format: biochemical. Conditions: 25 °C, triplicate, read-out: BuChE IC50. On the procedure: as §1, §2

Details of assay [4]: method as in PMID 29907205. The following applies: read-out: DPPH+ IC50 (antioxidant activity of edaravone); cited from earlier work.
The mark [5] stands for this setting: 0.12 mM DPPH+ in methanol, 30 min, 25 °C, 517 nm, read-out: DPPH+ IC50.

T1 sequence (O42275 24-633): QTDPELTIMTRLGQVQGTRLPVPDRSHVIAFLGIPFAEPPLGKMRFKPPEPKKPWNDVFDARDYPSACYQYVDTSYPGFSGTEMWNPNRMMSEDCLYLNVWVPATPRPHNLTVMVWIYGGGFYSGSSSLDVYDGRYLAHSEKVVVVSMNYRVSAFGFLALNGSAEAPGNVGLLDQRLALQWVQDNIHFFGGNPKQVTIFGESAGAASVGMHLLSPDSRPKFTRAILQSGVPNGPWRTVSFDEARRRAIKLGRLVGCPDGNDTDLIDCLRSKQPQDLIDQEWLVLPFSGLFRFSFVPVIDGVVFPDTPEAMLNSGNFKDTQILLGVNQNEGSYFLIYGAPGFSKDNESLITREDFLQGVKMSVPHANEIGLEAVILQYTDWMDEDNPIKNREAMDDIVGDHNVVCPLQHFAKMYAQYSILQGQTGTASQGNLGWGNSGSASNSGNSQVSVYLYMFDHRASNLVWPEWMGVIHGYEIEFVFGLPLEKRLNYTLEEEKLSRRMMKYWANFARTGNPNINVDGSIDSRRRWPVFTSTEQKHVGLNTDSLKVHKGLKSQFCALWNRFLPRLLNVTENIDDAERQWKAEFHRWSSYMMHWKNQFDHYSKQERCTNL
T2 sequence (P81908 whole entry): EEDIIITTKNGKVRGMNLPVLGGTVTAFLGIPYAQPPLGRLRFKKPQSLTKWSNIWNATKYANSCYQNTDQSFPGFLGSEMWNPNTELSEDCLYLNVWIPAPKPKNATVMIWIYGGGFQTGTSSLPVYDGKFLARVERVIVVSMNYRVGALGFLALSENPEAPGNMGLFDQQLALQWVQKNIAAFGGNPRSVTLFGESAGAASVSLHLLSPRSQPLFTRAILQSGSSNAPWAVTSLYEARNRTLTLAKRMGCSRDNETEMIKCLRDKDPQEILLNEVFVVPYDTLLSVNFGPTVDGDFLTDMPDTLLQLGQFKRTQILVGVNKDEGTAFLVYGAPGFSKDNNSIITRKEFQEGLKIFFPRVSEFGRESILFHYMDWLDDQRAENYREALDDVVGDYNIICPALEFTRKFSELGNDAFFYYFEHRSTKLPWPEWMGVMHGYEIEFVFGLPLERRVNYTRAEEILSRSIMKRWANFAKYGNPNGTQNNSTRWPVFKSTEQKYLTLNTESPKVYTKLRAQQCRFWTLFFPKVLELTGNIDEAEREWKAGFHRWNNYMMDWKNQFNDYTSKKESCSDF

For `CC1=NN(c2ccc(C(=O)O)cc2)C(=O)C1` [Compound 1, Edaravone-COOH], the IC50 in assay [1] (setting [5]) amounted to 45.7 µM.
For the compound `CC1=NN(c2ccc(C(=O)NCc3ccncc3)cc2)C(=O)C1` [Compound 3, 4–(3-Methyl-5-oxo-4H-pyrazol-1-yl)-N-(pyridine-4-ylmethyl)benzamide], the IC50 in assay [2] was over 100 µM; in assay [3], over 1000 µM; in assay [1] (setting [5]), 12.5 µM.
As for `CC1=NN(c2ccc(C(=O)NCc3cc[n+](Cc4ccccc4)cc3)cc2)C(=O)C1` [Compound 5a, 1-Benzyl-4-({[4–(3-methyl-5-oxo-4H-pyrazol-1-yl)phenyl]foramido}methyl)pyridin-1-ium bromide], the results for the IC50 in assay [2], in assay [3] and in assay [1] (setting [5]) were 30 µM, over 1000 µM and 22.9 µM, respectively. For the same compound, the “SI AChE (AChE selectivity index = IC50(eqBuChE)/IC50(eeAChE))” value in assay [2] is on record as over 33.
Take `CC1=NN(c2ccc(C(=O)NCc3cc[n+](Cc4ccccc4F)cc3)cc2)C(=O)C1` [Compound 5b, 1-[(2-Fluorophenyl)methyl]-4-({[4–(3-methyl-5-oxo-4H-pyrazol-1-yl)phenyl]foramido}methyl)pyridin-1-ium bromide]: the values for the half-maximal inhibitory concentration (IC50) in assay [2], in assay [3] and in assay [1] (setting [5]) were 1.2 µM, over 1000 µM and 28.8 µM, respectively.
On to `CC1=NN(c2ccc(C(=O)NCc3cc[n+](Cc4cccc(F)c4)cc3)cc2)C(=O)C1` [Compound 5c, 1-[(3-Fluorophenyl)methyl]-4-({[4–(3-methyl-5-oxo-4H-pyrazol-1-yl)phenyl]foramido}methyl)pyridin-1-ium bromide], for which the results for the half-maximal inhibitory concentration (IC50) in assay [2], in assay [3] and in assay [1] (setting [5]) were 4.6 µM, 926 µM and 25 µM, respectively. The “SI AChE (AChE selectivity index = IC50(eqBuChE)/IC50(eeAChE))” value in assay [2] is 201.
Regarding `CC1=NN(c2ccc(C(=O)NCc3cc[n+](Cc4ccc(F)cc4)cc3)cc2)C(=O)C1` [Compound 5d, 1-[(4-Fluorophenyl)methyl]-4-({[4–(3-methyl-5-oxo-4H-pyrazol-1-yl)phenyl]foramido}methyl)pyridin-1-ium bromide], the IC50 was 3.6 µM in assay [2], over 1000 µM in assay [3] and 11.5 µM in assay [1] (setting [5]). The “SI AChE (AChE selectivity index = IC50(eqBuChE)/IC50(eeAChE))” value in assay [2] is on record as over 278.
In the case of `CC1=NN(c2ccc(C(=O)NCc3cc[n+](Cc4ccccc4Cl)cc3)cc2)C(=O)C1` [Compound 5e, 1-[(2-Chlorophenyl)methyl]-4-({[4–(3-methyl-5-oxo-4H-pyrazol-1-yl)phenyl]foramido}methyl)pyridin-1-ium bromide], the results for the half-maximal inhibitory concentration (IC50) in assay [2], in assay [3] and in assay [1] (setting [5]) were 1.9 µM, 890 µM and 13.8 µM, respectively. The “SI AChE (AChE selectivity index = IC50(eqBuChE)/IC50(eeAChE))” value in assay [2] is listed as 468.
With `CC1=NN(c2ccc(C(=O)NCc3cc[n+](Cc4cccc(Cl)c4)cc3)cc2)C(=O)C1` [Compound 5f, 1-[(3-Chlorophenyl)methyl]-4-({[4–(3-methyl-5-oxo-4H-pyrazol-1-yl)phenyl]foramido}methyl)pyridin-1-ium bromide], the results for the IC50 in assay [2], in assay [3] and in assay [1] (setting [5]) were 3.3 µM, 891 µM and 13.1 µM, respectively. In addition, the “SI AChE (AChE selectivity index = IC50(eqBuChE)/IC50(eeAChE))” value in assay [2] was found to be 270.
For the compound `CC1=NN(c2ccc(C(=O)NCc3cc[n+](Cc4ccccc4Br)cc3)cc2)C(=O)C1` [Compound 5g, 1-[(2-Bromophenyl)methyl]-4-({[4–(3-methyl-5-oxo-4H-pyrazol-1-yl)phenyl]foramido}methyl)pyridin-1-ium bromide], the IC50 in assay [2] was 3.5 µM; in assay [3], 160 µM; in assay [1] (setting [5]), 19 µM; in assay [1] (supplement, dose response curves, read-out: Antioxidant activity (DPPH+) dose response curve IC50), 19 µM. The “SI AChE (AChE selectivity index = IC50(eqBuChE)/IC50(eeAChE))” value in assay [2] was 46.
For the compound `CC1=NN(c2ccc(C(=O)NCc3cc[n+](Cc4cccc(Br)c4)cc3)cc2)C(=O)C1` [Compound 5h, 1-[(3-Bromophenyl)methyl]-4-({[4–(3-methyl-5-oxo-4H-pyrazol-1-yl)phenyl]foramido}methyl)pyridin-1-ium bromide], the figures for the 50% inhibitory concentration (IC50) in assay [2], in assay [3] and in assay [1] (setting [5]) were over 100 µM, over 1000 µM and 13.3 µM, respectively.
Turning to `CC1=NN(c2ccc(C(=O)NCc3cc[n+](Cc4ccc(Br)cc4)cc3)cc2)C(=O)C1` [Compound 5i, 1-[(4-Bromophenyl)methyl]-4-({[4–(3-methyl-5-oxo-4H-pyrazol-1-yl)phenyl]foramido}methyl)pyridin-1-ium bromide], the half-inhibitory concentration (IC50) is 11.5 µM in assay [2], over 1000 µM in assay [3] and 18.1 µM in assay [1] (setting [5]). The “SI AChE (AChE selectivity index = IC50(eqBuChE)/IC50(eeAChE))” value in assay [2] was over 87.
In the case of `CC1=NN(c2ccc(C(=O)NCc3cc[n+](Cc4ccccc4C)cc3)cc2)C(=O)C1` [Compound 5j], the concentration for half-maximal inhibition (IC50) was determined as 19.9 µM in assay [2], 630 µM in assay [3] and 9.5 µM in assay [1] (setting [5]). For the same compound, the “SI AChE (AChE selectivity index = IC50(eqBuChE)/IC50(eeAChE))” value in assay [2] is 32.
`CC1=NN(c2ccc(C(=O)NCc3cc[n+](Cc4cccc(C)c4)cc3)cc2)C(=O)C1` [Compound 5k]: the half-maximal inhibitory concentration (IC50) was 69.1 µM in assay [2], over 1000 µM in assay [3] and 27.5 µM in assay [1] (setting [5]). The “SI AChE (AChE selectivity index = IC50(eqBuChE)/IC50(eeAChE))” value in assay [2] is over 15.
Taken in the same sequence, the figures for `CC1=NN(c2ccc(C(=O)NCc3cc[n+](Cc4ccc(C)cc4)cc3)cc2)C(=O)C1` [Compound 5l] were 95.5 µM, over 1000 µM, 14.5 µM and over 11.
Consider `CC1=NN(c2ccccc2)C(=O)C1` [Edaravone], for which, in assay [4], the IC50 is 4.7 µM.
For the compound `Cc1c(C)c2c(c(C)c1O)CCC(C)(C(=O)O)O2` (centres unmarked) [Trolox, reference compound], the IC50 in assay [1] (setting [5]) stood at 13.1 µM.

In general, IC50 refers to the concentration needed to halve the response being measured.
